In patent US20180049996A1, “THERAPEUTIC AGENT FOR CHRONIC RESPIRATORY DISEASE AND COMPOSITION FOR INHIBITING CARDIAC FIBROSIS” (NIPPON HYPOX LABORATORIES INCORPORATED, priority 2015, published 2018):

Legend:
[1] = tested on: Pulmonary Fibrosis Induced by Bleomycin; assay: Bronchoalveolar lavage (BAL) examination, cell numbers, pulmonary fibrosis induced by bleomycin; assay type: in vivo, male SD rats
Method: Bleomycin is used to produce disease-model animals of interstitial pneumonia. The bleomycin and 2,3,5-trimethylhydroquinone-1-hexyl ether (HTHQ) as the hydroquinone derivative represented by the general formula (1) described above of the present invention were simultaneously administered to male SD rats of 10 week old after birth to examine the effect of the action. The test groups consisted of the control group to which sterile saline was administered; test group 1 to which bleomycin (7.5 mg/kg body weight) alone was administered; test group 2 to which bleomycin (7.5 mg/kg body weight) and HTHQ (50 mg/kg body weight/day) were administered in combination; and test group 3 to which bleomycin (7.5 mg/kg body weight) and HTHQ (200 mg/kg body weight/day) were administered in combination.
In test groups 1 to 3, bleomycin was orally administered in a single dose. In test groups 2 and 3, 2,3,5-trimethylhydroquinone-1-hexyl ether (HTHQ) was daily orally administered for 10 or 20 days starting from 24 h after the administration of bleomycin. In test group 1, olive oil, which was used as a solvent of HTHQ, was daily orally administered at 10 mL/kg/day starting from 24 h after the administration of bleomycin. The number of animals in each group was 16. 8 animals of each group were sacrificed on days 10 and 20 after the administration of bleomycin and measurement of body weight, lung autopsy, histopathologic examination of lungs and bronchoalveolar lavage examination were conducted.
Bronchoalveolar lavage (BAL) examination was conducted on the rats in the control group and the test groups. When interstitial pneumonia developed, the infiltration of inflammatory cells occurs and thus the total cell number in BAL fluid increases. The total cell numbers on day 10 after the administration of bleomycin were as follows: 2×10^5 cells in the control group, 9×10^5 cells in test group 1 (the bleomycin-single administration group), 6.5×10^5 cells in test group 2 (the low-dose HTHQ-administered group, 50 mg/kg body weight), and 10.5×10^5 cells in test group 3 (the high-dose HTHQ-administered group, 200 mg/kg body weight), and thus the effect of HTHQ administration was not found on day 10 after the administration of bleomycin.
When interstitial pneumonia developed, the infiltration of alveolar macrophages to interstitial tissue occurs and thus the alveolar macrophage number in BAL fluid increases. The alveolar macrophage numbers on day 10 after the administration of bleomycin were as follows: 1.45×10^5 cells in the control group, 4.5×10^5 cells in test group 1 (the bleomycin-single administration group), 1.99×10^5 cells in test group 2 (the low-dose HTHQ-administered group), and 3.24×10^5 cells in test group 3 (the high-dose HTHQ-administered group), and thus the effect of HTHQ administration was not found on day 10 after the administration of bleomycin. However, on day 20 after the administration, while the alveolar macrophage number of the bleomycin-single administration group was 5.5×10^5 cells, the alveolar macrophage number of the low-dose HTHQ-administered group was 3×10^5 cells and the alveolar macrophage number of the high-dose HTHQ-administered group was decreased to 2×10^5 cells.
When interstitial pneumonia developed, the infiltration of inflammatory cells of neutrophils to interstitial tissue occurs and thus the neutrophil number in BAL fluid increases. The neutrophil numbers on day 10 after the administration of bleomycin were as follows: 1.04×10^4 cells in the control group, 2.28×10^5 cells in test group 1 (the bleomycin-single administration group), 1.44×10^5 cells in test group 2 (the low-dose HTHQ-administered group), and 5.83×10^5 cells in test group 3 (the high-dose HTHQ-administered group), and thus the effect of HTHQ was not found on day 10 after the administration of bleomycin. […]

[2] = tested on: Lung Inflammation Induced by Tobacco Smoke; assay: BAL inflammatory cell numbers, lung inflammation induced by tobacco smoke (COPD model); assay type: in vivo, C57BL/6N mice; settings: HTHQ 10 and 20 mg/kg/day oral; tobacco smoke 10 days + LPS; compared to COPD model group
Method: 6 week old male SPF C57BL/6N mice, 20 to 25 g of body weight, were purchased from CORETEC INC. (South Korea).
The tests were conducted as follows. The mice in the COPD (chronic obstructive pulmonary disease) model group of the test groups were exposed to tobacco smoke for 1 hour per day (8 cigarettes/day) for 10 days and LPS (5 μg/50 μL/mouse) was intranasally administered to the mice on day 8 after the start of the tests. Roflumilast, the positive control substance, was orally administered to the mice in the positive control substance-administered group at 10 mg/kg body weight/day, and then they were exposed to tobacco smoke for 10 days starting from 1 hour after the administration of roflumilast, and LPS (5 μg/50 μL/mouse) was intranasally administered to the mice on day 8 after the start of the tests. […]
The mice in the test groups were euthanized 72 hours after the LPS administration and the mice in the normal control group were euthanized on day 11 after the start of the tests by intraperitoneal injection of pentobarbital (Hanrimu pharmaceutical, South Korea) at 50 mg/kg and then the bronchi were excised. […] After preparing slide samples from 100 μL of BAL cell fluid using Cytospin (4° C., 1000 rpm×5 min), the cell numbers of inflammatory cells (neutrophil, macrophages) present in the BAL fluid were counted using a Diff-Quik stain kit.

[3] = Test group 2: bleomycin + HTHQ 50 mg/kg/day oral, day 10
[4] = Test group 3: bleomycin + HTHQ 200 mg/kg/day oral, day 10
[5] = bleomycin + HTHQ 50 mg/kg/day oral (low-dose), day 20
[6] = bleomycin + HTHQ 200 mg/kg/day oral (high-dose), day 20

CCCCCCOc1cc(C)c(O)c(C)c1C [HTHQ, 2,3,5-trimethylhydroquinone-1-hexyl ether]
alveolar macrophage number in BAL fluid [1, 3]: 1.99×10^5 cells
lymphocyte number in BAL fluid [1, 3]: 3.07×10^5 cells
neutrophil number in BAL fluid [1, 3]: 1.44×10^5 cells
total cell number in BAL fluid [1, 3]: 6.5×10^5 cells
alveolar macrophage number in BAL fluid [1, 4]: 3.24×10^5 cells
lymphocyte number in BAL fluid [1, 4]: 1.43×10^5 cells
neutrophil number in BAL fluid [1, 4]: 5.83×10^5 cells
total cell number in BAL fluid [1, 4]: 10.5×10^5 cells
alveolar macrophage number in BAL fluid [1, 5]: 3×10^5 cells
lymphocyte number in BAL fluid [1, 5]: 0.53×10^5 cells
neutrophil number in BAL fluid [1, 5]: 4.34×10^5 cells
total cell number in BAL fluid [1, 5]: 7.9×10^5 cells
alveolar macrophage number in BAL fluid [1, 6]: 2×10^5 cells
lymphocyte number in BAL fluid [1, 6]: 0.3×10^5 cells
neutrophil number in BAL fluid [1, 6]: 1.49×10^5 cells
total cell number in BAL fluid [1, 6]: 3.8×10^5 cells
infiltration of inflammatory cells (neutrophil, macrophages) in BAL fluid [2]: effectively reduced
